Test system: genes predictive for the anti-inflammatory macrolide effect
Experiment: Genes statistically predictive of Clari response: differentially expressed with Clari but not the inactive macrolides MAA or Josa (Appendix E)
Format: cell-based
Source text: In the case of the above-mentioned (i) related to arachidonic acid biosynthesis, specifically, methods of the embodiment involve assaying whether a test macrolide alters biosynthesis of arachidonic acid, alters the expression or activities of enzymes involved in the biosynthesis or activation of arachidonic acid (e.g., arachidonic acid CoA synthetase, delta-6 desaturase, fatty acid elongase, and delta-5 desaturase, AA-related genes in Tables 2 and 3), or alters the expression of genes identified as predictive for the anti-inflammatory macrolide effect (Appendix E). Assays in which arachidonic acid or gene expression or enzymatic activity is detected can be carried out after contacting a cell with a test macrolide. Any cell line that secretes prostaglandin or produces arachidonic acid can be used. Epithelial and macrophages lines (e.g., A549 or THP-1) are suitable for this purpose; other cell lines can be identified by carrying out assays such as those described in the specific Examples, below. Alternatively, screening assays can be carried out after adding a test macrolide to an in vitro cell system (e.g., a cellular extract or liver microsome preparation) or an in vitro enzyme assay system.

CO[C@@H]1[C@@H](O[C@@H]2O[C@H](C)[C@@H](O[C@H]3C[C@@](C)(O)[C@@H](OC(=O)CC(C)C)[C@H](C)O3)[C@H](N(C)C)[C@H]2O)[C@@H](CC=O)C[C@@H](C)[C@@H](O)/C=C/C=C/C[C@@H](C)OC(=O)C[C@H]1OC(C)=O [josamycin]
group mean, gene DDOST (SpotID 49757, MAA and Josa vs. Clari): 0.96 | group mean, gene BCL2L2 (SpotID 49761, MAA and Josa vs. Clari): 0.85 | group mean, gene AD022 (SpotID 49767, MAA and Josa vs. Clari): 0.96 | mean group, AD022 (SpotID 49767, pooled group mean): 0.96 | group mean, gene P4HB (SpotID 49781, MAA and Josa vs. Clari): 0.98 | group mean, gene CYC1 (SpotID 49787, MAA and Josa vs. Clari): 1.09 | mean group, CYC1 (SpotID 49787, pooled group mean): 1.09 | group mean, gene BCL2L2 (SpotID 49794, MAA and Josa vs. Clari): 0.86 | mean group, AD022 (SpotID 49800, pooled group mean): 0.97 | group mean, gene CDKN2C (SpotID 49815, MAA and Josa vs. Clari): 1.06 | group mean, gene CYC1 (SpotID 49820, MAA and Josa vs. Clari): 1.05 | group mean, gene LAMP2 (SpotID 49882, MAA and Josa vs. Clari): 0.99 | group mean, gene ATP2B4 (SpotID 49915, MAA and Josa vs. Clari): 1.23 | mean group, ATP2B4 (SpotID 49915, pooled group mean): 1.23 | group mean, gene DHCR24 (SpotID 49922, MAA and Josa vs. Clari): 1.00 | group mean, gene KIAA0169 (SpotID 49930, MAA and Josa vs. Clari): 1.03 | mean group, RFC1 (SpotID 49947, pooled group mean): 1.05 | group mean, gene CCNE2 (SpotID 49967, MAA and Josa vs. Clari): 1.02 | group mean, gene BMP6 (SpotID 49981, MAA and Josa vs. Clari): 0.94 | group mean, gene VTN (SpotID 49989, MAA and Josa vs. Clari): 1.19 | group mean, gene SRC (SpotID 49990, MAA and Josa vs. Clari): 0.99 | group mean, gene NFYC (SpotID 50011, MAA and Josa vs. Clari): 1.10 | mean group, HIF1A (SpotID 50022, pooled group mean): 1.07 | group mean, gene GNB2L1 (SpotID 50049, MAA and Josa vs. Clari): 1.32 | mean group, NDUFA2 (SpotID 50050, pooled group mean): 0.90 | group mean, gene MBTPS1 (SpotID 50067, MAA and Josa vs. Clari): 0.95 | group mean, gene SCOP (SpotID 50079, MAA and Josa vs. Clari): 0.97 | mean group, SCOP (SpotID 50079, pooled group mean): 0.97 | group mean, gene IDI1 (SpotID 50084, MAA and Josa vs. Clari): 0.90 | group mean, SpotID 50085 (gene symbol not given) (SpotID 50085, MAA and Josa vs. Clari): 1.18 | group mean, gene CNOT3 (SpotID 50099, MAA and Josa vs. Clari): 0.95 | mean group, CNOT3 (SpotID 50099, pooled group mean): 0.95 | group mean, gene IRF5 (SpotID 50103, MAA and Josa vs. Clari): 0.87 | group mean, gene RRBP1 (SpotID 50135, MAA and Josa vs. Clari): 0.95 | group mean, SpotID 50216 (gene symbol not given) (SpotID 50216, MAA and Josa vs. Clari): 0.95 | group mean, gene FLJ13868 (SpotID 50222, MAA and Josa vs. Clari): 0.93 | group mean, gene HK2 (SpotID 50224, MAA and Josa vs. Clari): 0.95 | mean group, IL10RB (SpotID 50267, pooled group mean): 0.98 | group mean, gene UQCR (SpotID 50284, MAA and Josa vs. Clari): 0.83 | group mean, gene TM7SF2 (SpotID 50294, MAA and Josa vs. Clari): 1.01 | group mean, gene CDR2 (SpotID 50302, MAA and Josa vs. Clari): 0.89 | group mean, gene MAX (SpotID 50307, MAA and Josa vs. Clari): 0.96 | group mean, gene BMP6 (SpotID 50319, MAA and Josa vs. Clari): 0.98 | group mean, gene DAD1 (SpotID 50332, MAA and Josa vs. Clari): 1.02 | group mean, gene FGFR2 (SpotID 50337, MAA and Josa vs. Clari): 0.93 | group mean, gene IKKE (SpotID 50342, MAA and Josa vs. Clari): 0.94 | mean group, IKKE (SpotID 50342, pooled group mean): 0.94 | group mean, gene LOC51295 (SpotID 50349, MAA and Josa vs. Clari): 1.01 | mean group, LOC51295 (SpotID 50349, pooled group mean): 1.01 | mean group, CFL1 (SpotID 50351, pooled group mean): 1.16 | group mean, gene TFAM (SpotID 50386, MAA and Josa vs. Clari): 1.05 | group mean, gene DGCR6L (SpotID 50399, MAA and Josa vs. Clari): 1.02 | group mean, gene CHERP (SpotID 50405, MAA and Josa vs. Clari): 1.00 | group mean, gene AGPAT1 (SpotID 50412, MAA and Josa vs. Clari): 0.99 | mean group, GOCAP1 (SpotID 50421, pooled group mean): 1.01 | group mean, gene SIGIRR (SpotID 50452, MAA and Josa vs. Clari): 0.96 | group mean, gene MMP15 (SpotID 50464, MAA and Josa vs. Clari): 0.87 | group mean, gene CEBPA (SpotID 50474, MAA and Josa vs. Clari): 0.97 | mean group, MGP (SpotID 50511, pooled group mean): 0.83 | group mean, gene ARHC (SpotID 50513, MAA and Josa vs. Clari): 0.91 | mean group, ARHC (SpotID 50513, pooled group mean): 0.91 | group mean, gene PRKCBP1 (SpotID 50532, MAA and Josa vs. Clari): 1.07 | group mean, gene PTPRT (SpotID 50550, MAA and Josa vs. Clari): 0.92 | mean group, BN51T (SpotID 50584, pooled group mean): 0.97 | mean group, CKS2 (SpotID 50590, pooled group mean): 0.74 | mean group, SpotID 50591 (SpotID 50591 (gene symbol not given), pooled group mean): 1.01 | group mean, SpotID 50591 (gene symbol not given) (SpotID 50591, MAA and Josa vs. Clari): 1.01 | mean group, SRP19 (SpotID 50601, pooled group mean): 0.95 | group mean, gene PDIR (SpotID 50639, MAA and Josa vs. Clari): 0.91 | group mean, gene PROS1 (SpotID 50643, MAA and Josa vs. Clari): 0.93 | mean group, BET1 (SpotID 50645, pooled group mean): 0.84 | group mean, gene COPB2 (SpotID 50654, MAA and Josa vs. Clari): 0.99 | group mean, gene MAX (SpotID 50659, MAA and Josa vs. Clari): 0.95 | group mean, gene GNB5 (SpotID 50689, MAA and Josa vs. Clari): 1.00 | group mean, gene PRKDC (SpotID 50736, MAA and Josa vs. Clari): 1.07 | mean group, PRKDC (SpotID 50736, pooled group mean): 1.07 | group mean, gene AD022 (SpotID 50738, MAA and Josa vs. Clari): 0.94 | mean group, AD022 (SpotID 50738, pooled group mean): 0.94

Source: US20070172957A1, “Methods of identifying anti-inflammatory macrolides” (TAISHO PHARMACEUTICAL CO., LTD., priority 2004, published 2007)
